The conditions of assay [1]: LS patients, long-term exposure; cited from earlier work.
The subject of assay [2] is PBMCs from LS Rhesus macaques. Put plainly: IFNγ ELISpot assay with PBMCs from LS Rhesus macaques. It is filed as cell-based. Conditions: stimulated 48 h (FIG. 22B). As for the experimental part: FIG. 22A-B. Validation of the predicted neoAg in LS Rhesus macaques. A) Immunogenicity of neoAg peptide pools and deconvoluted neoAg with ELISpot assay. PBMCs from LS Rhesus macaques (n=4) were stimulated with […] and 12 individual peptides from the pools, concavalin A (+ve control), and DMSO (−ve control) for 48 h. B) ELISpot images. […] Spot forming Units for IFNγ secretion were analyzed and quantitated by ELISpot plate reader.
Since the ultimate goal is to develop a universal LS-cancer vaccine. the inventors then tested the immunogenicity of the ELISpot-reactive peptides in PBMCs from LS Rhesus macaques who carry a pathogenic mutation in the MLH1 gene with pathology similar to human LS. These animals. housed at MD Anderson Cancer Center, spontaneously develop CRC and serve as an ideal preclinical LS model for immune-interception strategies with neoAg vaccines. PBMCs from four different LS Rhesus were stimulated with four peptide pools and 12 individual peptides for ELISpot assays as indicated in FIG. 22A.

For another assay, the system named is healthy donor PBMCs. Briefly: IFNγ ELISpot assay with peptide-stimulated healthy donor PBMCs. It is filed as cell-based, human. As for the experimental part:
FIG. 10A-D. In vitro validation of predicted neoAgs immunogenicity using ELISpot IFNy assay. A) Schematic of peptide pool, stimulation, and cell culture workflow for ELISpot assays. PBMCs were exposed with the individual peptides from the immunogenic pools in the presence of IL-7 for 3 d, followed by expansion of neoAg-specific T cells in the presence of IL-2. On day 13, expanded cells (10^5 cells per well) were plated onto 96-well ELISpot plate coated with an IFNγ antibody and re-stimulated with the respective peptide for 24 h. IFNy secreting cells were analyzed as spot-forming units (SFUs), and the inventors chose ≥15 SFU produced by peptide stimulated cells over DMSO control cells as an indicator of the peptide immunogenicity. B) Quantification of IFNγ-secreting cells (SFU) obtained from ELISpot assay of 12 neoAg-stimulated PBMCs. ConcA and DMSO served as positive and negative controls. […] C) Selection of 110 predicted MHC-I neoAgs from 3 different categories and percentage of immunogenicity in vitro validation. […] “Most Immunogenic” refers to neoAgs selected from the top 100 prediction list of Most Immunogenic MHC-I neoAgs. “Most recurrent” refers to neoAgs selected from the top 100 prediction list of Most Recurrent MHC-I neoAgs. “Others” refers neoAgs that were predicted to have low immunogenicity and no recurrency. A total of 44 MHC-II neoAgs from 2 different categories were tested. […] “Most Immunogenic” refers to neoAgs selected from the top 100 prediction list of Most Immunogenic MHC-II neoAgs. “Most recurrent” refers to neoAgs selected from the top 100 prediction list of Most Recurrent MHC-II neoAgs. D) pMHC-pentamer staining. Expanded Pan-T cells from the healthy human donor were isolated and stained with WDTC1 neoAg peptide/A*02:01 Pentameric complexes and PerCP-conjugated CD8 antibody followed by flow cytometry analysis. Pan T-cells from healthy human donor PBMC (HLA-A*02:01) were isolated using negative magnetic selection. Isolated Pan T cells were stimulated and expanded with Opto-antigen presenting beads conjugated with WDTC1 neoAg-peptide. Viable Pan-T cells were gated based on FSC and SSC scatter and SYTOX Blue dead cells staining after doublet-exclusion. Flow cytometric plots representing CD8 positive (x-axis) and PE-biotin-pMHC-pentamer positive (y-axis) cells; unstained, unstimulated, and WDTC1 Opto-antigen presenting beads stimulated cells (left to right). The percentage of live CD8+ cells and CD8/WDTC1 neoAg-loaded MHC pentamer positive cells are shown.
FIG. 19A-B. In vitro validation of the pooled predicted neoAgs immunogenicity using ELISpot IFNγ assay. A) Schematic of peptide pool, stimulation, and cell culture workflow for ELISpot assays. All 154 peptides were grouped into 15 peptide pools to stimulate PBMCs from 3 healthy human donors as shown in the illustrations. IFNy secreting cells were analyzed as spot-forming units (SFUs), indicative of immunogenicity. B) Quantification of IFNγ-secreting cells (SFU) obtained from ELISpot assay. Pools 2, 3, 5, 6, 9, and 12 produced at least 15 or higher SFU/10^5 cells from two different PBMCs. […] ConcA and DMSO served as positive and negative controls.
Healthy donor PBMCs were stimulated with 15 peptide pools (Supplementary Table 13) to expand the neoAg-specific CD8^+ T-cells followed by quantitative ELISpot assays (FIG. 19A) to measure immunogenicity. […] To ascertain the immunogenicity of individual peptides within each immunogenic pool. a deconvolution protocol (see Methods) was implemented (FIG. 10A). […] Three percent of MHC-I neoAgs not predicted to be highly immunogenic or recurrent (Others). 5% of the top 100 most immunogenic MHC-II predicted neoags, and 6% of the top 100 most recurrent MHC-II predicted neoags elicited an immunogenic response as assessed by ELISpot assays. Additionally. 18% of all of these elispot-reactive neoags were also predicted from the validation set (FIG. 9C). […]

Where [3] appears, read: IFNγ ELISpot, peptides marked Tested.
[4] abbreviates: IFNγ ELISpot, peptide-stimulated healthy donor PBMCs.
The mark [5] stands for this setting: IFNγ ELISpot, peptide-stimulated healthy donor PBMCs, peptides grouped in 15 pools.
[6] abbreviates: IFNγ ELISpot, only peptides marked Tested.
The mark [7] stands for this setting: IFNγ secretion in healthy donor PBMCs vs unexposed control cells.

On to `COc1ccc2cc([C@H](C)C(=O)O)ccc2c1` [naproxen], for which the “resident immune cells within the mucosal tissue of the colon” value in assay [1] is “increase of resident immune cells within the mucosal tissue of the colon”.

Take “CELSR2: deconvoluted neoAg peptide from CELSR2, tested in LS Rhesus PBMCs (RLDKGNFAGA)”: the “immunogenicity of deconvoluted peptides in stimulated rhesus PBMC (ELISpot)” value in assay [2] is “except PLOD1 and CELSR2 were determined immunogenic”. With SQKNITPAI [compound 122], the Elispot reactive entry in the assay on healthy donor PBMCs (setting [3]) is “No”. Regarding SQNWGSLPL [compound 164], the “ELISPOT result (positive Yes/No) for peptides marked Tested” value (shortened to “ELISPOT result (positive Yes/No)”) in the assay on healthy donor PBMCs (setting [4]) is given as “No”. In the case of SQVWTAATLR [compound 115], in the assay on healthy donor PBMCs (setting [3]), the Elispot reactive entry is on record as “No”. Still for that read-out and setting: then SWMGGLHSFY [compound 121], with “No”. With TAPVASASPKL [compound 17], the Elispot reactive result with healthy donor PBMCs (IFNγ ELISpot, peptide tested) was “No”. Take TPMHSLLIS [compound 212]: the Elispot reactive entry in the assay with healthy donor PBMCs (IFNγ ELISpot, peptide tested) is “No”. The same measure, in the same setting: then TPMHSLLISPM [compound 211], with “No”. Consider TPQDSRQVL [compound 117], for which, in the assay with healthy donor PBMCs (setting [3]), the Elispot reactive entry is reported as “No”. On to TPRKLVGRAV [compound 162], for which, in the assay on healthy donor PBMCs (setting [4]), the “ELISPOT result (positive Yes/No)” value is on record as “No”. TQLARFFPI: the Elispot reactive result in the assay with healthy donor PBMCs (setting [5]) was “yes”. Regarding TQLARFFPI [compound 24], the “experimental validation of the neoAg, Yes/NA” value with healthy donor PBMCs is “Yes”. Besides, the Elispot reactive entry in the assay on healthy donor PBMCs (setting [6]), with healthy donor PBMCs (setting [3]) and in the assay with healthy donor PBMCs (setting [7]) was “Yes” throughout.

For the molecule TSSPRTMSW [compound 120], in the assay with healthy donor PBMCs (setting [3]), the Elispot reactive entry was “No”. With VGMRETTGL [compound 119], the Elispot reactive entry in the assay on healthy donor PBMCs (setting [3]) is “No”.

VLEDTLLKI: in the assay with healthy donor PBMCs (setting [5]), the Elispot reactive result was “yes”. For the molecule VLEDTLLKI [compound 158], the “ELISPOT result (positive Yes/No)” value with healthy donor PBMCs (setting [4]) is listed as “Yes”. Also, the Elispot reactive result in the assay with healthy donor PBMCs (setting [7]) was “Yes”. Turning to VMANVLTLNL, the Elispot reactive entry in the assay with healthy donor PBMCs (setting [5]) was “yes”. With VMANVLTLNL [compound 157], the “ELISPOT result (positive Yes/No)” value in the assay on healthy donor PBMCs (setting [4]) is recorded as “Yes”. Also, the Elispot reactive entry with healthy donor PBMCs (setting [7]) is “Yes”. Turning to VPACSHVPM [compound 202], the Elispot reactive entry in the assay on healthy donor PBMCs (IFNγ ELISpot, peptide tested) is on record as “No”. Turning to VPTWSARLL [compound 203], the Elispot reactive entry in the assay on healthy donor PBMCs (IFNγ ELISpot, peptide tested) is “No”.

In the case of VSNIAQAPLY [compound 172], in the assay on healthy donor PBMCs (setting [4]), the “ELISPOT result (positive Yes/No)” value is “No”. On to VVHKKRGLF [compound 127], for which the Elispot reactive result in the assay on healthy donor PBMCs (setting [3]) is listed as “No”. With WLPKMPPFV, in the assay on healthy donor PBMCs (setting [5]), the Elispot reactive result is “yes”. WLPKMPPFV [compound 163]: the “ELISPOT result (positive Yes/No)” value with healthy donor PBMCs (setting [4]) is recorded as “Yes”. In addition, the Elispot reactive result in the assay with healthy donor PBMCs (setting [7]) is “Yes”.

With WSWCGTSQTY [compound 136], the “ELISPOT result (positive Yes/No)” value with healthy donor PBMCs (setting [4]) is “Yes”. Moreover, in the assay on healthy donor PBMCs (setting [7]), the Elispot reactive entry is “Yes”. For the molecule YLFAKAYLV [compound 201], the Elispot reactive entry in the assay on healthy donor PBMCs (IFNγ ELISpot, peptide tested) is given as “No”.

With YLGTPTWNC, in the assay with healthy donor PBMCs (setting [5]), the Elispot reactive result is given as “yes”. Regarding YLGTPTWNC [compound 151], the “ELISPOT result (positive Yes/No)” value in the assay with healthy donor PBMCs (setting [4]) is “Yes”. Besides, the Elispot reactive entry with healthy donor PBMCs (setting [7]) was “Yes”.

Take YMMDDLELI [compound 1]: in the assay on healthy donor PBMCs (setting [6]), the Elispot reactive result is reported as “No”. As for YVAIRPLPY [compound 173], the “ELISPOT result (positive Yes/No)” value with healthy donor PBMCs (setting [4]) was “No”.
